Data reported in US11998610B2, “Conjugates and methods of using the same” (Flagship Pioneering Innovations V, Inc., priority 2018, dated 2024).
Non-standard residues stand in square brackets, D forms with d. Residues, ends and D or L forms follow the SMILES beside them. *: point of attachment. Octanoyl = CCCCCCCC(=O)*

Columns and labels:
[1] = system: CT26.CL25 cells; assay: Cell viability readout (CellTiter-Glo) with bacteria-free media; assay type: cell-based, mouse; conditions: 72 h
Method: Example 100: Cell-Based Assay of Bacterial Enzymes with Mammalian CT26.CL25 Mouse Colorectal Carcinoma Viability Readout
Bacteria-free media was incubated with the indicated test compound. ((R)—N1-(2-(methylamino)ethyl)-2-octanamidosuccinamide, a recognition element-linker conjugate lacking a payload, was serially diluted 1:1000 in DMSO and […] in medium+10% FBS to give a final concentration of 10 nM. Compound 35, Compound 76, Compound 77, Compound 78, Compound 79, and SN-38 were serially diluted 1:1000 in DMSO and 1:1000 in medium to give a final concentration of 10 nM, and then the bacteria-free supernatants were tested for their ability to kill mammalian cells. As an additional control, the test compound will also be incubated with bacteria-free media. The above steps can also be performed in the presence of E. coli (CFT073 ATCC 700928, Nissle 1917, or BL21 (DE3)) to effect cleavage of the conjugates of the application.
On Day 1, CT26.CL25 cells (15,000 cells/well) were seeded in triplicate into a 24 well plate and incubated overnight in 100 μL of complete medium. The reactions (bacteria or media blank) was pelleted by centrifugation, and then the supernatant was passed through a 0.2 μm sterile filter to remove residual bacteria.
On Day 2, 300 μL of a 10 nM solution of each compound in media were applied to separate wells of CT26.CL25 cells as prepared on Day 1. The cells were incubated at 37° C. for 72 h. After this point, viability was assessed using a CellTiter-Glo kit.
Binning of the compounds was achieved by measuring cell growth or arrest (e.g. remaining cells are >90% viable, >80% viable, >70% viable, >60% viable, >50% viable, >40% viable, >30% viable, >20% viable, or >10% viable).

[2] = system: E. coli Nissle 1917; assay: Payload release in the presence of fecal matter, ClbP positive E. coli; assay type: cell-based; conditions: 10 μM compound, anaerobic, 37° C., 20 h, LCMS
Excerpt: (§1) This example is representative of the methods described in Example 103. Fecal samples were subjected to metagenomic whole-genome shotgun sequencing followed by querying the dataset for the presence of the clbP gene or by attempting to amplify the gene with primers specific for it by qPCR. Samples that gave a signal below the detection limit were used in subsequent steps. The fecal sample was resuspended as a 15% (w/v) slurry in Anaerobic Phosphate Buffer Saline.
(§2) Following steps 1 and 2 as detailed in Example 98, E. coli CFT073 ATCC 700928, E. coli Nissle 1917, or E. coli BL21(DE3) were grown in liquid culture.
(§3) In an anaerobic chamber, the E. coli strains were added to the fecal samples obtained in step 1 at a dilution level calculated to represent 0, 1, 10, 50, 90, 99, or 100% of all organisms present in PRAS dilution blank on a 200 μL volume. The test compound (10 μM final concentration) was added to the mixture. The test compound was also added to a bacteria-free media control under similar conditions. The plate was sealed and incubated at 37° C. for 20 h. Under similar conditions, a standard curve of both the starting material and the payload compound was made in bacteria-free media.
(§4) After 20 h, an aliquot was tested for breakdown and release of a payload by LCMS by diluting serially to a final dilution of 1:100 first with Acetonitrile (10× dilution) and then with (1:1) Mobile Phase A-0.1% Formic Acid in Water:Mobile Phase B-0.1% Formic acid in Acetonitrile (1 OX dilution), with absolute quantification compared to the external standard curve. In an ideal case, the amount of payload released in the reaction(s) with ClbP-encoding E. coli was >75% of the theoretical maximum, and none was released in the E. coli BL21(DE3) and media-alone conditions. In an acceptable case, the amount of payload released in the reaction(s) with ClbP-encoding E. coli was 25-75% of the theoretical maximum, and <25% of the theoretical maximum was released in the E. coli BL21(DE3) and media-alone conditions. In a non-preferred case, the amount of payload released in the reactions(s) with ClbP-encoding E. coli was <25% of the theoretical maximum, and >25% of the theoretical maximum was released in the E. coli BL21(DE3) and media-alone conditions.

[3] = system: E. coli BL21(DE3); assay: Payload release in the presence of fecal matter, ClbP negative E. coli; assay type: cell-based; conditions: 10 μM compound, anaerobic, 37° C., 20 h, LCMS
Excerpt: as §1, §2, §3, §4

[4] = system: WT ClbP; assay: Assay with purified ClbP protein (LCMS); assay type: biochemical, E. coli; conditions: 20 μM WT ClbP, 500 μM compound, room temperature, 24 h
Method: This example is representative of the method described in Example 91 the soluble peptidase domain (amino acids 38 to 375) of ClbP or the catalytically inert mutant S95A was cloned into pET28a using previously defined boundaries as a starting point (Brotherton, J. Am. Chem. Soc., 135:3359-3362, 2013).
WT ClbP or S95A ClbP was isolated as an N-terminally tagged HiS6-SUMO1-fusion protein from […] using E. coli BL21(DE3)RIPL to express the protein. The cells were lysed in 30 mM Tris pH 8.0, 300 mM NaCl, 10% (v/v) glycerol, benzonase (Sigma-Millipore), lysozyme, B-per (ThermoFisher), and Y-per (ThermoFisher). The lysate was clarified via centrifugation (13,000 g, 20 min), and the supernatant was incubated with HiBond Ni-NTA agarose (5 mL). The resin was subsequently washed with wash buffer (30 mM Tris pH 7.5, 250 mM NaCl, 10 mM imidazole, 3% (v/v) glycerol, and 2 mM TCEP). The resin was incubated at 30° C. for 1 h with 1.4 mg ULP1 protease. The resin was then washed with an additional fraction of wash buffer. Centrifuge filtration was used to concentrate the protein, and the concentrated protein was subsequently applied to a 16/600 Superdex 200 size exclusion column with an isocratic elution of 25 mM HEPES, 25 mM Tris pH 7.4, 325 mM NaCl, 10 mM KCl and 3% (v/v) glycerol at a flow rate of […]. The fractions containing the protein were determined by SDS-PAGE, combined, and concentrated by centrifuge filtration. 3 mM TCEP was added to the concentrated protein, which was then aliquoted, flash frozen in liquid N2, and stored at −80° C.
This example is representative of the method described in Example D, ClbP was incubated with test compounds in an in vitro assay. In a typical assay, 0, 1, or 20 μM purified WT or S95A ClbP was incubated with 100 or 500 μM compound in reaction buffer (50 mM Tris-HCl pH 7.5, 37.5 mM NaCl) at room temperature for 24 h. The total volume of this reaction was 150 μL.
After 24 h, 2 volumes of acetonitrile (300 μL) were added to the reaction to quench the solution.
The reaction was centrifuged (4,000 g, 15 min), and then the supernatant was analyzed by LCMS. 5 μL of the supernatant was injected onto an Acquity UPLC BEH C18 1.7 μm 2.1×100 column. Buffer A was 0.1% (v/v) formic acid in water and buffer B was 0.1% (v/v) formic acid in acetonitrile. The flow rate was 0.5 mL/min. The initial % B was 10, which was held for 30 s then ramped up to 90% B over 3 min, held at 90% B for 1 min, ramped down to 10% B over 15 s, and then held at 10% B for 15 s. The UV-Vis spectrum from 210-400 nm was monitored with 3.6 nm resolution. Positive and negative mode ESI were monitored from 100-1000 m/z with a 20 V cone voltage at 5 Hz sampling frequency in centroid collection.
The relative starting material remaining in the WT ClbP reaction was determined by LCMS and then compared to the residual starting material in the no-enzyme and catalytically inert enzyme (S95A ClbP) reactions. In an ideal case, the amount of residual starting material in the WT ClbP reaction was <25% of the amount in the S95A ClbP and no-enzyme conditions. In an acceptable case, the amount of residual starting material in the WT ClbP reaction was 25-75% of the amount in the S95A ClbP and no-enzyme conditions. In a non-preferred case, the amount of residual starting material in the WT ClbP reaction was >75% of the amount in the S95A ClbP and no-enzyme conditions.
Formation of the anticipated product was likewise quantified by LCMS analysis and confirmed by coelution with an external product standard. In an ideal case, the amount of product formed in the WT ClbP reaction corresponded to >75% of the theoretical maximum. In an acceptable case, the amount of product formed in the WT ClbP reaction corresponded to 25-75% of the theoretical maximum. In a non-preferred case, the amount of product formed in the WT ClbP reaction corresponded to <25% of the theoretical maximum.

[5] = system: E. coli CFT073 ATCC 700928 and/or E. coli Nissle 1917; assay: Cell-based assay with ClbP with LCMS, ClbP positive strain; conditions: for % Remaining in ClbP Positve Relative to Media-Only: ClbP-encoding E. coli, 10 μM compound, 37° C., 20 h
Outline: (§5)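 Compound (10 μM final) incubated 20 h at 37° C, aerobically, with 1:40-diluted overnight cultures of ClbP-positive E. coli or negative BL21(DE3), in duplicate, alongside uninoculated LB. Remaining parent quantified by LC-MS/MS (MRM) after acetonitrile quench, expressed as percent of media-alone.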

[6] = In vitro Colonic Material Stability Assay; assay type: in vitro ADME; conditions: colonic material slurry, anaerobic, 1 or 10 μM, 24 h
Outline: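 Compounds were added at 1 or 10 μM final to colonic material slurry (6.7 μL of 15% w/v slurry per 1 mL YCFAC or similar medium). Samples taken at 0–2880 min were acetonitrile-quenched and the remaining compound quantified by LC/MS.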

[7] = system: E. coli BL21(DE3); assay: Cell-based assay with ClbP with LCMS, ClbP negative strain; conditions: 10 μM compound, 37° C., 20 h
Outline: as §5

[8] = 10 nM compound, CT26.CL25 cells, CellTiter-Glo

| SMILES | % payload released in ClbP positive (Nissle 1917) at 1:1 ratio of E. coli to fecal bacteria [2] | Bacteria-free media (Luminescence, average of three runs) [1, 8] | % payload released in ClbP negative (BL21 DE3) at 1:1 ratio of E. coli to fecal bacteria [3] | % Remaining in ClbP Positve Relative to Media-Only [5] | % Remaining in ClbP Negative Relative to Media-Only [7] | further results |
| --- | --- | --- | --- | --- | --- | --- |
| CCCCCCCC(=O)N[C@H](CC(N)=O)C(=O)NCCNC [(R)—N1-(2-(methylamino)ethyl)-2-octanamidosuccinamide, reference compound] |  |  |  |  |  | Bacteria-free media (Luminescence, average of three runs) ([1]; 0.01 µM): 278313 |
| CCCCCCCC(=O)N[C@H](CC(N)=O)C(=O)NCCN(C)C(=O)Oc1ccc2nc3c(c(CC)c2c1)Cn1c-3cc2c(c1=O)COC(=O)[C@]2(O)CC [Example 76, (S)-4,11-diethyl-4-hydroxy-3,14-dioxo-3,4,12,14-tetrahydro-1H-pyrano[3′,4′:6,7]indolizino[1,2-b]quinolin-9-yl (2-((R)-4-amino-2-octanamido-4-oxobutanamido)ethyl)(methyl)carbamate] | 25% | 282345 | 0% |  |  |  |
| CCCCCCCC(=O)N[C@H](CC(=O)O)C(=O)N[C@@H](C)C(=O)OC [Example 8, (R)-4-(((S)-1-methoxy-1-oxopropan-2-yl)amino)-3-octanamido-4-oxobutanoic acid] (Octanoyl-[dD]-Ala-OMe) |  |  |  | − (>75% compound remaining in the 20 μM WT ClbP reaction relative to the no-enzyme control) | + (between 25-75% compound remaining in the 20 μM WT ClbP reaction relative to the no-enzyme control) | Status (compound remaining in WT ClbP reaction relative to no-enzyme control) [4]: − (>75% compound remaining in the 20 μM WT ClbP reaction relative to the no-enzyme control); Assay 3 (% Remaining at 24 h) [6]: B (25-75% of the tested compound remaining) |
| CCc1c2c(nc3ccc(OC(=O)N(C)CCNC(=O)[C@@H](CC(N)=O)NC(=O)CCCc4ccccc4)cc13)-c1cc3c(c(=O)n1C2)COC(=O)[C@]3(O)CC [Example 78, (S)-4,11-diethyl-4-hydroxy-3,14-dioxo-3,4,12,14-tetrahydro-1H-pyrano[3′,4′:6,7]indolizino[1,2-b]quinolin-9-yl (2-((R)-4-amino-4-oxo-2-(4-phenylbutanamido)butanamido)ethyl)(methyl)carbamate] | 0% | 317645 | 0% |  |  |  |
| CCCCCCCC(=O)N[C@H](CC(N)=O)C(=O)NCCCC(=O)OCn1cc(F)c(=O)[nH]c1=O [Example 72B, (5-fluoro-2,4-dioxo-3,4-dihydropyrimidin-1(2H)-yl)methyl (R)-4-(4-amino-2-octanamido-4-oxobutanamido)butanoate] | 41.1% |  | 5.4% | ++ (<25% compound remaining in the 20 μM WT ClbP reaction relative to the control) | − (>75% compound remaining in the 20 μM WT ClbP reaction relative to the no-enzyme control) | Difference between the ClbP Positive and ClbP Negative release profiles ([5]; conclusion from Table 4): particularly favorable difference |
| CCc1c2c(nc3ccc(O)cc13)-c1cc3c(c(=O)n1C2)COC(=O)[C@]3(O)CC [SN-38, 7-ethyl-10-hydroxy-camptothecin, reference compound] |  | 121387 |  |  |  |  |
